Measurements as given in PMC8696196 (RSC Advances, 2021).
Read-outs that look alike come from different tables or passages of the source.

Assays:
[1] = tested on: H1N1 (A/Puerto Rico/8/34); assay: microbe, parasite or virus in culture; assay type: cell-based, influenza A virus; conditions: read-out: EC50 H1N1
in vitro = conditions: dog
H3N2 (A/Moscow/10/99) = assay: microbe, parasite or virus in culture; assay type: cell-based, influenza A virus; conditions: read-out: EC50 H3N2
N5 (H12N5) neuraminidase = N5 (H12N5) neuraminidase (Influenza A virus, UniProt A1ILL9); assay: biochemical
N2 (H3N2) neuraminidase = N2 (H3N2) neuraminidase (Influenza A virus, UniProt Q8AZ87); assay: biochemical

Compound: CCC(CC)O[C@@H]1C=C(C(=O)O)C[C@H](N)[C@H]1NC(C)=O [OSC, oseltamivir carboxylate, reference compound]
- EC50 [1]: 0.25 ± 0.081 µM
- CC50 (in vitro): > 500 µM
- EC50 (H3N2 (A/Moscow/10/99)): 0.43 ± 0.08 µM
- IC50 (N5 (H12N5) neuraminidase): 0.00094 ± 0.0003 µM

Compound: CCC(CC)O[C@@H]1C=C(C(=O)O)C[C@H](n2cc(-c3ccc(Oc4ccccc4)cc3)nn2)[C@H]1NC(C)=O [Compound 1b, (3R,4R,5S)-4-Acetamido-3-(pentan-3-yloxy)-5-[4-(4-phenoxyphenyl)-1H-1,2,3-triazol-1-yl]cyclohex-1-ene-1-carboxylic acid]
- IC50 (N2 (H3N2) neuraminidase): > 100 µM
- IC50 (N5 (H12N5) neuraminidase): > 100 µM

Compound: CCC(CC)O[C@@H]1C=C(C(=O)O)C[C@H](n2cc(-c3ccc(C)cc3)nn2)[C@H]1NC(C)=O [Compound 1d, (3R,4R,5S)-4-Acetamido-5-[4-(4-methylphenyl)-1H-1,2,3-triazol-1-yl]-3-(pentan-3-yloxy)cyclohex-1-ene-1-carboxylic acid]
- IC50 (N2 (H3N2) neuraminidase): 4.41 ± 1.11 µM
- IC50 (N5 (H12N5) neuraminidase): 2.85 ± 1.28 µM

Compound: CCC(CC)O[C@@H]1C=C(C(=O)O)C[C@H](n2cc(COc3ccc(C[C@H](N)C(=O)O)cc3)nn2)[C@H]1NC(C)=O [Compound 1n, (3R,4R,5S)-4-Acetamido-5-{4-{[4-((S)-2-amino-2-carboxyethyl)phenoxy]methyl}-1H-1,2,3-triazol-1-yl}-3-(pentan-3-yloxy)cyclohex-1-ene-1-carboxylic acid]
- IC50 (N5 (H12N5) neuraminidase): 6.95 ± 0.47 µM

Compound: CCC(CC)O[C@@H]1C=C(C(=O)O)C[C@H](n2nncc2-c2ccccc2C(=O)O)[C@H]1NC(C)=O [Compound 2h, (3R,4R,5S)-4-Acetamido-5-[5-(2-carboxyphenyl)-1H-1,2,3-triazol-1-yl]-3-(pentan-3-yloxy)cyclohex-1-ene-1-carboxylic acid]
- IC50 (N5 (H12N5) neuraminidase): 0.57 ± 0.13 µM

Compound: CCC(CC)O[C@@H]1C=C(C(=O)O)C[C@H](n2cc(-c3ccccc3)nn2)[C@H]1NC(C)=O [Compound 1e, (3R,4R,5S)-4-Acetamido-3-(pentan-3-yloxy)-5-(4-phenyl-1H-1,2,3-triazol-1-yl)cyclohex-1-ene-1-carboxylic acid]
- IC50 (N5 (H12N5) neuraminidase): 12.9 ± 1.57 µM

Compound: CCC(CC)O[C@@H]1C=C(C(=O)O)C[C@H](n2cc(-c3ccc(N(CC)CC)cc3)nn2)[C@H]1NC(C)=O [Compound 1m, (3R,4R,5S)-4-Acetamido-5-[4-(4-diethylaminophenyl)-1H-1,2,3-triazol-1-yl]-3-(pentan-3-yloxy)cyclohex-1-ene-1-carboxylic acid]
- IC50 (N5 (H12N5) neuraminidase): > 100 µM

Compound: CCC(CC)O[C@@H]1C=C(C(=O)O)C[C@H](n2nncc2-c2ccc(N)cc2)[C@H]1NC(C)=O [Compound 2i, (3R,4R,5S)-4-Acetamido-5-[5-(4-aminophenyl)-1H-1,2,3-triazol-1-yl]-3-(pentan-3-yloxy)cyclohex-1-ene-1-carboxylic acid]
- IC50 (N5 (H12N5) neuraminidase): 0.25 ± 0.044 µM

Compound: CCC(CC)O[C@@H]1C=C(C(=O)O)C[C@H](n2cc(-c3ccc(N(C)C)cc3)nn2)[C@H]1NC(C)=O [Compound 1l, (3R,4R,5S)-4-Acetamido-5-[4-(4-dimethylaminophenyl)-1H-1,2,3-triazol-1-yl]-3-(pentan-3-yloxy)cyclohex-1-ene-1-carboxylic acid]
- IC50 (N5 (H12N5) neuraminidase): 0.74 ± 0.18 µM

Compound: CCC(CC)O[C@@H]1C=C(C(=O)O)C[C@H](n2cc(-c3cccc(N)c3)nn2)[C@H]1NC(C)=O [Compound 1j, (3R,4R,5S)-4-Acetamido-5-[4-(3-aminophenyl)-1H-1,2,3-triazol-1-yl]-3-(pentan-3-yloxy)cyclohex-1-ene-1-carboxylic acid]
- IC50 (N5 (H12N5) neuraminidase): 3.6 ± 0.82 µM

Compound: CCC(CC)O[C@@H]1C=C(C(=O)O)C[C@H](n2cc(-c3ccc(C(=O)O)cc3)nn2)[C@H]1NC(C)=O [Compound 1f, (3R,4R,5S)-4-Acetamido-5-[4-(4-carboxyphenyl)-1H-1,2,3-triazol-1-yl]-3-(pentan-3-yloxy)cyclohex-1-ene-1-carboxylic acid]
- IC50 (N5 (H12N5) neuraminidase): 8.14 ± 1.12 µM

Compound: CCC(CC)O[C@@H]1C=C(C(=O)O)C[C@H](n2nncc2-c2ccc(C(=O)O)cc2)[C@H]1NC(C)=O [Compound 2f, (3R,4R,5S)-4-Acetamido-5-[5-(4-carboxyphenyl)-1H-1,2,3-triazol-1-yl]-3-(pentan-3-yloxy)cyclohex-1-ene-1-carboxylic acid]
- IC50 (N5 (H12N5) neuraminidase): 3.92 ± 0.69 µM

Compound: CCC(CC)O[C@@H]1C=C(C(=O)O)C[C@H](n2nncc2COc2ccc(C[C@H](N)C(=O)O)cc2)[C@H]1NC(C)=O [Compound 2n, (3R,4R,5S)-4-Acetamido-5-{5-{[4-((S)-2-amino-2-carboxyethyl)phenoxy]methyl}-1H-1,2,3-triazol-1-yl}-3-(pentan-3-yloxy)cyclohex-1-ene-1-carboxylic acid]
- IC50 (N5 (H12N5) neuraminidase): 2.43 ± 0.33 µM

Compound: CCC(CC)O[C@@H]1C=C(C(=O)O)C[C@H](n2cc(-c3ccc(-c4ccccc4)cc3)nn2)[C@H]1NC(C)=O [Compound 1a, (3R,4R,5S)-4-Acetamido-5-[4-(1,1′-biphenyl-4-yl)-1H-1,2,3-triazol-1-yl]-3-(pentan-3-yloxy)cyclohex-1-ene-1-carboxylic acid]
- IC50 (N2 (H3N2) neuraminidase): > 100 µM
- IC50 (N5 (H12N5) neuraminidase): > 100 µM

Compound: CCC(CC)O[C@@H]1C=C(C(=O)O)C[C@H](n2nncc2-c2ccc(N(CC)CC)cc2)[C@H]1NC(C)=O [Compound 2m, (3R,4R,5S)-4-Acetamido-5-[5-(4-diethylaminophenyl)-1H-1,2,3-triazol-1-yl]-3-(pentan-3-yloxy)cyclohex-1-ene-1-carboxylic acid]
- IC50 (N5 (H12N5) neuraminidase): > 100 µM

Compound: CCC(CC)O[C@@H]1C=C(C(=O)O)C[C@H](n2cc(COc3ccc4ccccc4c3)nn2)[C@H]1NC(C)=O [Compound 1c, (3R,4R,5S)-4-Acetamido-5-[4-(2-naphthyloxy)methyl-1H-1,2,3-triazol-1-yl]-3-(pentan-3-yloxy)cyclohex-1-ene-1-carboxylic acid]
- IC50 (N2 (H3N2) neuraminidase): 3.8 ± 0.65 µM
- IC50 (N5 (H12N5) neuraminidase): 1.66 ± 0.25 µM

Compound: CCC(CC)O[C@@H]1C=C(C(=O)O)C[C@H](n2cc(-c3cccc(C(=O)O)c3)nn2)[C@H]1NC(C)=O [Compound 1g, (3R,4R,5S)-4-Acetamido-5-[4-(3-carboxyphenyl)-1H-1,2,3-triazol-1-yl]-3-(pentan-3-yloxy)cyclohex-1-ene-1-carboxylic acid]
- IC50 (N5 (H12N5) neuraminidase): 29.5 ± 8 µM

Compound: CCC(CC)O[C@@H]1C=C(C(=O)O)C[C@H](n2nncc2-c2cccc(N)c2)[C@H]1NC(C)=O [Compound 2j, (3R,4R,5S)-4-Acetamido-5-[5-(3-aminophenyl)-1H-1,2,3-triazol-1-yl]-3-(pentan-3-yloxy)cyclohex-1-ene-1-carboxylic acid]
- EC50 ([1]; Influenza A virus, H1N1, MDCK, 72 h): 11.5 ± 2.69 µM
- CC50 (in vitro): > 500 µM
- EC50 (H3N2 (A/Moscow/10/99); Influenza A virus, H3N2, MDCK, 72 h): 7.65 ± 0.7 µM
- IC50 (N5 (H12N5) neuraminidase): 0.045 ± 0.016 µM

Compound: CCC(CC)O[C@@H]1C=C(C(=O)O)C[C@H](n2nncc2-c2cccc(C(=O)O)c2)[C@H]1NC(C)=O [Compound 2g, (3R,4R,5S)-4-Acetamido-5-[5-(3-carboxyphenyl)-1H-1,2,3-triazol-1-yl]-3-(pentan-3-yloxy)cyclohex-1-ene-1-carboxylic acid]
- IC50 (N5 (H12N5) neuraminidase): 2.04 ± 0.99 µM

Compound: CCC(CC)O[C@@H]1C=C(C(=O)O)C[C@H](n2cc(-c3ccccc3N)nn2)[C@H]1NC(C)=O [Compound 1k, (3R,4R,5S)-4-Acetamido-5-[4-(2-aminophenyl)-1H-1,2,3-triazol-1-yl]-3-(pentan-3-yloxy)cyclohex-1-ene-1-carboxylic acid]
- IC50 (N5 (H12N5) neuraminidase): 0.52 ± 0.13 µM

Compound: CCC(CC)O[C@@H]1C=C(C(=O)O)C[C@H](n2nncc2-c2ccc(N(C)C)cc2)[C@H]1NC(C)=O [Compound 2l, (3R,4R,5S)-4-Acetamido-5-[5-(4-dimethylaminophenyl)-1H-1,2,3-triazol-1-yl]-3-(pentan-3-yloxy)cyclohex-1-ene-1-carboxylic acid]
- IC50 (N5 (H12N5) neuraminidase): 0.14 ± 0.016 µM

Compound: CCC(CC)O[C@@H]1C=C(C(=O)O)C[C@H](n2cc(-c3ccccc3C(=O)O)nn2)[C@H]1NC(C)=O [Compound 1h, (3R,4R,5S)-4-Acetamido-5-[4-(2-carboxyphenyl)-1H-1,2,3-triazol-1-yl]-3-(pentan-3-yloxy)cyclohex-1-ene-1-carboxylic acid]
- IC50 (N5 (H12N5) neuraminidase): 61.2 ± 23.7 µM

Compound: CCC(CC)O[C@@H]1C=C(C(=O)O)C[C@H](n2nncc2-c2ccccc2)[C@H]1NC(C)=O [Compound 2e, (3R,4R,5S)-4-Acetamido-3-(pentan-3-yloxy)-5-(5-phenyl-1H-1,2,3-triazol-1-yl)cyclohex-1-ene-1-carboxylic acid]
- IC50 (N5 (H12N5) neuraminidase): 5.34 ± 0.45 µM

Compound: CCC(CC)O[C@@H]1C=C(C(=O)O)C[C@H](n2nncc2-c2ccccc2N)[C@H]1NC(C)=O [Compound 2k, (3R,4R,5S)-4-Acetamido-5-[5-(2-aminophenyl)-1H-1,2,3-triazol-1-yl]-3-(pentan-3-yloxy)cyclohex-1-ene-1-carboxylic acid]
- IC50 (N5 (H12N5) neuraminidase): 0.41 ± 0.047 µM

Compound: CCC(CC)O[C@@H]1C=C(C(=O)O)C[C@H](n2cc(-c3ccc(N)cc3)nn2)[C@H]1NC(C)=O [Compound 1i, (3R,4R,5S)-4-Acetamido-5-[4-(4-aminophenyl)-1H-1,2,3-triazol-1-yl]-3-(pentan-3-yloxy)cyclohex-1-ene-1-carboxylic acid]
- IC50 (N5 (H12N5) neuraminidase): > 100 µM
